The values below come from US20250137050A1, “METHODS AND COMPOSITIONS FOR DETERMINING RISK OF AUTISM SPECTRUM DISORDERS” (The Regents of the University of California, priority 2021, published 2025).

Holding throughout (format): cell-based, human
Data set [1] concerns LUHMES cells. In words: Cell viability (CellTiter Blue) of LUHMES cells after hypoxia mimetic. The settings on record: differentiated LUHMES neurons compared with undifferentiated; CoCl2 for 24 hours. The procedure: (§1) LUHMES cells (ATCC, Manassas, VA, USA, CRL-2927) were seeded on fibronectin coated plates (Thermo Fisher Scientific, Waltham, MA, USA, CWP001, 354402). Undifferentiated cells were maintained in proliferation medium: Advanced DMEM/F12 (Invitrogen, Carlsbad, CA, USA), supplemented with N2 supplement (Invitrogen, Carlsbad, CA, USA), Penicillin-streptomycin-glutamine (Thermo Fisher Scientific, Waltham, MA, USA), and 40 ng/ml recombinant bFGF (Invitrogen, Carlsbad, CA, USA). To generate differentiated LUHMES, cells were switched to differentiation media for five days. […] For RNA quantification, cells were maintained in 6-well plates. […]
(§2) All cells were maintained at 37° C. containing […] and 5% CO2. […] Cell numbers were measured using disposable countess chamber slide on Countess II FL automated cell counter (Thermo Fisher Scientific, Waltham, MA, USA) under the default steps with mixing 10 μl of samples with 10 μl of trypan blue. CellTiter Blue reagent was used for measured cell viability using […] based on manufacturer instruction (Promega, Madison, WI, USA). H2O2 production represented relative reactive oxygen species (ROS) level was measured with the ROS-Glo H2O2 assay system using 50 nM with the default setting with level measured by luminometer (Promega, Madison, WI, USA).
A general note: Resazurin is reduced to fluorescent resorufin, in cell work by metabolically active cells.

The subject of data set [2] is LUHMES cells. In words: Reactive oxygen species (ROS-Glo H2O2 assay) in LUHMES cells after hypoxia mimetic. The settings on record: differentiated LUHMES neurons compared with undifferentiated; 100 nM CoCl2 for 24 hours. Here is the method:
as §1, §2

In the next data set the test system is NHIP. In words: NHIP transcript levels by RT-qPCR in LUHMES cells after hypoxia mimetic. The settings on record: differentiated LUHMES cells. Here is the method: as §1, with “days. Differentiation media: Advanced DMEM/F12, supplemented with N2 supplement, Penicillin-streptomycin-glutamine, 1 mM dbcAMP (MilliporeSigma, Burlington, MA, USA), 1 μg/ml tetracycline (Neta Scientific, Hainesport, NJ, USA), and 2 ng/ml recombinant human GDNF (Thermo Fisher Scientific, Waltham, MA, USA).” for “days.”
Total RNA was isolated from HEK293T cells transiently transfected with NHIP-eGFP or negative control NEG-eGFP using AllPrep DNA/RNA/Protein mini kit (Qiagen, Hilden, Germany). […] Fold changes of transcript levels were measured using the Fluidigm Real-Time PCR Analysis software calculated fold change of gene expression as the delta delta CT normalized to GAPDH (Fluidigm, San Francisco, CA, USA).

“Also recorded” adds a separate entry of the source.

On to `[Cl][Co][Cl]` [CoCl2, cobalt chloride], for which the cell viability entry in the data set with LUHMES cells [1] is “significant decrease”. In addition, the “reactive oxygen species (ROS) levels” value in the data set with LUHMES cells [2] was “increase”. Also, the NHIP transcript levels result in the data set on NHIP (100 nM CoCl2 for 24 hours vs mock, normalized to GAPDH) is “significantly increased”. Moreover, the “NHIP transcript levels after removal of hypoxia mimetic” value with NHIP (48 hours of recovery (Day 8) after 24 hours of CoCl2) is recorded as “returned to untreated levels; also recorded: returned to mock control baseline levels”.
